In patent publication US20240246960A1 (adMare Therapeutics Society, priority 2021, published 2024):

What was measured:
[1] = target: T1, DNA-PK (Homo sapiens, UniProt P78527); assay: DNA-PK Assay for Biochemical Enzymatic Inhibition (ADP Glo Kinase assay)
T1 construct: purchased Invitrogen PR9107A
Experimental: A biochemical assay was performed to identify IC50 values against DNA-PK activity in a two-step reaction with a kinase reaction followed by ADP Glo™ Kinase assay Kit (Promega V9102).
Three-fold serial dilutions of compounds in DMSO were prepared in kinase assay buffer (50 mM HEPES pH 7.5, 20 mM MgCl2, 100 mM KCl, 50 μM DTT, 10 μg/ml calf thymus DNA, 0.01% Tween 20). Kinase assay buffer was used to prepare compound treatments to 0.02% DMSO (dimethyl sulphoxide) content. DMSO controls were prepared to produce a maximum and minimum luminescence signal for normalization. Substrate (Anaspec, AS-60210-5) and ATP (Promega V9102) and ATP mix was prepared by dilution in kinase assay buffer for 434.4 μM and 64.4 μM final assay concentrations, respectively. Compounds and control were added to 25 ng DNA-PK enzyme (Invitrogen, PR9107A) diluted in kinase buffer in assay plate (Corning 267459) and incubated for 15 minutes at room temperature prior to addition of substrate and ATP mix.
Throughout the assay, each time a reagent was added to the microplate, it was centrifuged for 1 minute at 1300 rcf. All reagents were added, and incubations carried out at room temperature. The reaction was then incubated for 60 minutes. ADP-ATP standards at 0, 4, 10, 40, 80, and 100% ADP (prepared as specified in the ADP Glo™ Kinase assay kit) were also added to the microplate at a volume equal to the total kinase reaction. The ADP Glo™ Kinase Assay kit was then used to quantify DNA-PK activity: following the 60-minute incubation, a 1:1 volume of ADP Glo reagent was added to all wells, then following a further 45-minute incubation, a 1:1 volume of Kinase Detection Reagent was added to all wells. After this two-step assay, plates were incubated in a Synergy-Neo2 plate reader for 30 minutes with gentle shaking, followed by endpoint luminescent read Luminescence data was normalized by subtracting the background signal and expressing all background-adjusted values as a percentage of the average maximum signal. The data was then expressed as percent inhibition by subtracting from 100% (i.e. maximum luminescent signal will be 0% inhibition) and the resulting data plotted against ten concentration points on a logarithmic scale, using GraphPad Prism. Non-linear regression analysis was performed on each concentration response curve and the log [inhibitor] vs response—variable slope (four parameters) equation was selected to generate IC50 values.

[2] = target: T2, DNA-PK phosphorylation at Serine 2056 (Homo sapiens, UniProt P78527); assay: Cellular Assay for Inhibition of DNA-PK Phosphorylation at Serine 2056 (FaDu cells, neocarzinostatin, sandwich ELISA); format: cell-based
T2 construct: host or cells: FaDu
Experimental: FaDu cells were purchased from ATCC and maintained in MEM alpha medium (Life Technologies, cat. no. 12561) supplemented with 10% fetal bovine serum, and 1% GlutaMAX at 37° C. supplemented with 5% CO2. 50,000 cells were seeded to each well of a 96-well cell culture plate in 50 μL of culture medium and incubated for 16-24 hours. Three-fold serially diluted compounds were prepared in DMSO. Culture media was used to prepare compound treatments to 0.3% DMSO (dimethyl sulphoxide) content. Compound treatments were added to the cells for 1 hour prior incubation, followed by the addition of neocarzinostatin in fresh culture medium to 1 μg/mL final concentration for an additional 2 hours incubation to induce DNA DSBs (double-strand breaks). DMSO controls were incubated with fresh culture medium alone for the additional two hours incubation. The cells were then lysed and frozen at −20° C. Cell lysates were thawed on wet ice and protein concentrations quantified by BCA Protein Assay (Thermo # 23225). Lysis buffer was used to normalize lysates by protein content and all lysates were then investigated by sandwich ELISA by means of DNA-PK-specific antibodies (Abcam ab44815: total DNA-PK; ab124918: phosphoserine-2056 DNA-PK) in sandwich ELISA format on the MSD S600MM platform (MesoScale Discovery). % inhibition was calculated for all data points: =1−(DATA_PT−AVERAGE(DMSO controls))/(AVERAGE(NCS controls)−AVERAGE(DMSO controls)). Logarithm of the molar concentration of compound was plotted against percent inhibition to calculate IC50 values, with curve fit settings for data fit to log(inhibitor) vs. normalized response—Variable slope using curve fit software (GraphPad Prism).

| IC50 ([1]; Table 1) [nM] | Compound | further results |
| --- | --- | --- |
| 10 to 150 | Cn1cc([C@H]2CC[C@H](Oc3nc(N4CCOCC4)cc4ncc(Br)cc34)CC2)cn1 [Compound 3b, 4-(3-bromo-5-(((1r,4r)-4-(1-methyl-1H-pyrazol-4-yl)cyclohexyl)oxy)-1,6-naphthyridin-7-yl)morpholine] | – |
| 10 to 150 | Cn1cc([C@H]2CC[C@@H](Oc3nc(N4CCOCC4)cc4ncc(O)cc34)CC2)cn1 [Compound 4b, 5-(((1r,4r)-4-(1-methyl-1H-pyrazol-4-yl)cyclohexyl)oxy)-7-morpholino-1,6-naphthyridin-3-ol] | – |
| 10 to 150 | FC(F)(F)c1ccn([C@H]2CC[C@@H](Oc3nc(N4CCOCC4)cc4ncccc34)CC2)n1 [Compound 17c, 4-(5-(((1s,4s)-4-(3-(trifluoromethyl)-1H-pyrazol-1-yl)cyclohexyl)oxy)-1,6-naphthyridin-7-yl)morpholine] | – |
| 1 to 10 | FC(F)(F)c1ccnn1[C@H]1CC[C@@H](Oc2nc(N3CCOCC3)cc3ncccc23)CC1 [Compound 17d, 4-(5-(((1s,4s)-4-(5-(trifluoromethyl)-1H-pyrazol-1-yl)cyclohexyl)oxy)-1,6-naphthyridin-7-yl)morpholine] | IC50 ([2]; Table 1): 100 to 1000 nM |
| 10 to 150 | COc1cnc(N[C@H]2CC[C@@H](Oc3nc(N4CCOCC4)cc4ncc(Br)cc34)CC2)nc1 [Compound 18c, N-((1s,4s)-4-((3-Bromo-7-morpholino-1,6-naphthyridin-5-yl)oxy)cyclohexyl)-5-methoxypyrimidin-2-amine] | – |
| < 0.5 | Cc1nccc(N[C@H]2CC[C@@H](Oc3nc(N4CCOCC4)cc4ncccc34)CC2)n1 [Compound 37, 2-methyl-N-((1s,4s)-4-((7-morpholino-1,6-naphthyridin-5-yl)oxy)cyclohexyl)pyrimidin-4-amine] | IC50 ([2]; Table 1): 100 to 1000 nM |
| 10 to 150 | CCOC(=O)N[C@H]1CC[C@@H](Oc2nc(N3CCOCC3)cc3ncccc23)CC1 [Compound 104, Ethyl ((1s,4s)-4-((7-morpholino-1,6-naphthyridin-5-yl)oxy)cyclohexyl)carbamate] | – |
| 10 to 150 | O=C(N[C@H]1CC[C@@H](Oc2nc(N3CCOCC3)cc3ncccc23)CC1)c1cncnc1C(F)(F)F [Compound 130, N-((1s,4s)-4-((7-morpholino-1,6-naphthyridin-5-yl)oxy)cyclohexyl)-4-(trifluoromethyl)pyrimidine-5-carboxamide] | – |
| 10 to 150 | O=S(=O)(N[C@H]1CC[C@@H](Oc2nc(N3CCOCC3)cc3ncccc23)CC1)c1ccccc1 [Compound 147, N-((1s,4s)-4-((7-Morpholino-1,6-naphthyridin-5-yl)oxy)cyclohexyl)benzenesulfonamide] | – |
| 10 to 150 | O=S(=O)(N[C@H]1CC[C@@H](Oc2nc(N3CCOCC3)cc3ncccc23)CC1)c1ccc(F)cc1 [Compound 148, 4-Fluoro-N-((1s,4s)-4-((7-morpholino-1,6-naphthyridin-5-yl)oxy)cyclohexyl)benzenesulfonamide] | – |
| 10 to 150 | COc1ccc(S(=O)(=O)N[C@H]2CC[C@@H](Oc3nc(N4CCOCC4)cc4ncccc34)CC2)cc1 [Compound 149, 4-Methoxy-N-((1s,4s)-4-((7-morpholino-1,6-naphthyridin-5-yl)oxy)cyclohexyl)benzenesulfonamide] | – |
| 10 to 150 | O=C([C@H]1CC[C@@H](Oc2nc(N3CCOCC3)cc3ncccc23)CC1)N1CCOCC1 [Compound 154a, morpholino((1S,4S)-4-((7-morpholino-1,6-naphthyridin-5-yl)oxy)cyclohexyl)methanone] | – |
| 10 to 150 | CN1CCN(C(=O)[C@H]2CC[C@@H](Oc3nc(N4CCOCC4)cc4ncccc34)CC2)CC1 [Compound 154d, (4-methylpiperazin-1-yl)((1S,4S)-4-((7-morpholino-1,6-naphthyridin-5-yl)oxy)cyclohexyl)methanone] | – |
| 10 to 150 | c1ccc(CN[C@H]2CC[C@@H](Oc3nc(N4CCOCC4)cc4ncccc34)CC2)cc1 [Compound 155, (1s,4s)-N-benzyl-4-((7-morpholino-1,6-naphthyridin-5-yl)oxy)cyclohexan-1-amine] | IC50 ([2]; Table 1): 10000 to 30000 nM |
| 10 to 150 | CC(=O)Nc1cnc2cc(N3CCOCC3)nc(O[C@H]3CC[C@@H](n4ccnc4)CC3)c2c1 [Compound 162, N-(5-(((1s,4s)-4-(1H-imidazol-1-yl)cyclohexyl)oxy)-7-morpholino-1,6-naphthyridin-3-yl)acetamide] | – |
| 10 to 150 | CN(c1cnc2cc(N3CCOCC3)nc(O[C@H]3CC[C@@H](N(C)c4ncccn4)CC3)c2c1)S(C)(=O)=O [Compound 199, N-methyl-N-(5-(((1s,4s)-4-(methyl(pyrimidin-2-yl)amino)cyclohexyl)oxy)-7-morpholino-1,6-naphthyridin-3-yl)methanesulfonamide] | – |
| – | CS(=O)(=O)Nc1cnc2cc(N3CCOCC3)nc(O[C@H]3CC[C@@H](Nc4ncc(C(N)=O)cn4)CC3)c2c1 [LFA028, 2-[[4-[[3-(Methanesulfonamido)-7-morpholino-1,6-naphthyridin-5-yl]oxy]cyclohexyl]amino]pyrimidine-5-carboxamide] | IC50 ([2]; Table 2): 1000 to 10000 nM; IC50 ([1]; Table 2): 0.5 to 1 nM |
| – | CNC(=O)c1cnc(N[C@H]2CC[C@@H](Oc3nc(N4CCOCC4)cc4ncc(NS(C)(=O)=O)cc34)CC2)nc1 [LFA029, 2-[[4-[[3-(Methanesulfonamido)-7-morpholino-1,6-naphthyridin-5-yl]oxy]cyclohexyl]amino]-N-methyl-pyrimidine-5-carboxamide] | IC50 ([2]; Table 2): 100 to 1000 nM; IC50 ([1]; Table 2): < 0.5 nM |
| – | CN(C)C(=O)c1cnc(N[C@H]2CC[C@@H](Oc3nc(N4CCOCC4)cc4ncc(NS(C)(=O)=O)cc34)CC2)nc1 [LFA030, 2-[[4-[[3-(Methanesulfonamido)-7-morpholino-1,6-naphthyridin-5-yl]oxy]cyclohexyl]amino]-N,N-dimethyl-pyrimidine-5-carboxamide] | IC50 ([2]; Table 2): 100 to 1000 nM; IC50 ([1]; Table 2): < 0.5 nM |
| – | Nc1cnc2cc(N3CCOCC3)nc(O[C@H]3CC[C@@H](Nc4ncccn4)CC3)c2c1 [LFA107, 7-morpholino-5-[4-(pyrimidin-2-ylamino)cyclohexoxy]-1,6-naphthyridin-3-amine] | IC50 ([2]; Table 2): < 100 nM; IC50 ([1]; Table 2): < 0.5 nM |
| – | Oc1cnc2cc(N3CCOCC3)nc(O[C@H]3CC[C@@H](c4cnccn4)CC3)c2c1 [LFA1065, 7-morpholino-5-(4-pyrazin-2-ylcyclohexoxy)-1,6-naphthyridin-3-ol] | IC50 ([2]; Table 3): < 100 nM |
| – | N-[5-[4-[(4,6-dimethylpyrimidin-2-yl)amino]cyclohexoxy]-7-morpholino-1,6-naphthyridin-3-yl]methanesulfonamide;2,2,2-trifluoroacetic acid [LFA1046] | IC50 ([2]; Table 3): 100 to 1000 nM |
